Reference: patent US20100009352A1, “Method for Modeling a Disease” (priority 2006, published 2010)

Tests used:
[1] = tested on: PC12-HttQ103 cells; experiment: cellular systems biology model of Huntington's Disease, mutant huntingtin-GFP expression; type: cell-based, rat
Experimental: FIG. 10 are example cellular systems biology profiling images for a model of Huntington's Disease (HD). PC12-HttQ103 cells were seeded in 384-well plates +/− NGF (100 ng/ml). At two days post-seeding cells were induced with 200 nM RSL1 +/− NGF (100 ng/ml) for 48 h. Following fixation, cells were stained with Hoechst and with antibodies raised against tubulin and phospho c-Jun. Tubulin was detected with a donkey anti mouse Cy3 conjugated secondary antibody and phospho c-Jun was visualized with a donkey anti rabbit Cy5 conjugated secondary antibody. Images were captured with an HCS instrument and Hoechst-stained nuclei, mutant huntingtin-GFP expression, phospho c-Jun labeled nuclei, and tubulin-stained cells are shown. […]
FIG. 11 is a graph illustrating that mutant huntingtin aggregation correlates with cell loss. […] Images were captured with an HCS instrument and the cell number and % cells with aggregates were determined with standard imaging algorithms. […]
FIG. 14. are graphs illustrating little correlation between aggregate formation and differentiation PC12-Htt-Q103 cells were treated and stained as stated in FIG. 10. Aggregate formation in untreated and NGF-treated populations was measured with standard imaging algorithms. Mean neurite count and mean branch point distance form the cell body was also measured. […]

[2] = tested on: PC12T cells; experiment: cellular systems biology profile of GFP-Htt aggregate formation with compound treatment; type: cell-based
Experimental: To test if there was an interrelationship between the modulation of the microtubule cytoskeleton and the formation of huntingtin protein (Htt) aggregates, cells were induced to produce fluorescently labeled huntingtin protein (GFP-Htt). Soon thereafter, the same Cells were treated with a set of compounds including several microtubule modulators. Cellular systems biology profiling can be used to define the interrelationships between several cellular features including microtubule cytoskeletal stability, cell cycle regulation, GFP-Htt aggregate formation, and nuclear morphology.
In one embodiment, 7.5×10^+6 PC12T cells were plated into T25 tissue culture flasks and panasterone A was added to a final concentration of 5 μM. After an overnight incubation, the cells were trypsinized and replated onto collagen I coated 384-well microplates at a density of 10000 cells per well in medium containing 1 μM panasterone A (24 h after the first panasterone A treatment began). Cells were treated for 26 h with 14 compounds at 12 concentrations each ranging from <1 nM to 50 μM. At the end of the incubation period, cells were fixed with 3.7% formaldehyde, permeabilized with 0.5% Triton X-100 detergent, and labeled with primary-secondary antibody pairs to measure microtubule stability (α-tubulin) and mitotic events (phospho-histone […]). Cells were also labeled with Hoechst 33342 (5 μg/ml) to provide measurements of cell cycle regulation (DNA content), changes in cell number, and multiple nuclear morphology measurements including chromatin condensation and nuclear size and shape.
To build a cellular systems biology profile of the cellular response to GFP-Htt aggregation and compound treatment, the following example cellular systems biology response profile features can be calculated from responses of cell populations either expressing GFP-Htt or not expressing GFP-Htt that can be separated mathematically from each other and analyzed separately.

SMILES | cell number ([1]; 200 nM RSL1, as a function of treatment time) | % cells with aggregates ([1]; 200 nM RSL1 induction) [%] | compound induced modulation of cell cycle regulation (2 n/4 n distribution ratio) ([2]; cells with GFP-Htt aggregates versus cells without aggregates, 26 h treatment) | sensitivity to the microtubule destabilizing activity ([2]; cells with aggregates versus cells without aggregates) | Nocodazole-induced cell cycle regulation and nuclear morphological changes ([2]; in cells containing GFP-Htt aggregates)
CCc1c(OC)cccc1C(=O)NN(C(=O)c1cc(C)cc(C)c1)C(C)(C)C [RSL1] | decreased | 50 |  |  | 
COC(=O)Nc1nc2ccc(C(=O)c3cccs3)cc2[nH]1 [nocodazole] |  |  | less responsive | greater sensitivity | partially inhibited
